In patent publication US10329542B2, “HBV RNAse H purification and enzyme inhibitors” (Saint Louis University, priority 2012, dated 2019):

How the values were obtained:
HBV = HBV genomic replication assays (Table 2); type: cell-based, Hepatitis B virus; settings: class by active concentration
Protocol: Huh7 cells were maintained in Dulbecco's modified Eagle's medium with 10% fetal bovine serum at 37° C. in 5% CO2. Cells were seeded into 60 mm dishes and transfected at 70% confluency with 2.6 μg of plasmids using TransIT-LT1 (Mirus, Inc.). Test compounds were added the morning following transfection at 10 or 50 μM, and fresh medium containing the compounds was provided every 1-2 days. Four or five days post-transfection HBV cores were isolated by lysis of the cells in 10 mM Tris pH 7.5, 1 mM EDTA, 0.25% NP40, 50 mM NaCl, and 8% sucrose followed by sedimentation through a 30% sucrose cushion as described (Travis, et al., 1998). Viral DNAs were isolated from cytoplasmic core particle preparations by proteinase K digestion followed by phenol/chloroform extraction as described (Gong et al., 2001). Duplicate aliquots of the nucleic acids were treated with 2 U E. coli DNAse-free RNAseH (Invitrogen) at 37° C. for 30 min. or were mock treated. The nucleic acid samples were resolved by electrophoresis on 1.2% agarose gels and detected by Southern blotting with ^32P-labeled HBV DNA as a probe. […]

[1] = target: T1, HBV genotype D RNAseH (HRHPL) (Hepatitis B virus genotype D subtype ayw, UniProt P03156, INS679M); assay: Oligonucleotide-directed RNAseH cleavage assay, HBV genotype D; type: biochemical; settings: for Residual activity at 10 uM, Genotype D: ± standard deviation, 3 to 7 replicates; for Activity vs. HBV Biochemical vs. gtD: class by concentration giving inhibition (10, 20, 60 μM)
T1 construct: HRHPL contains HBV genotype D (Genbank V01460) polymerase residues 684-845; made in house; host or cells: E. coli BL21 codon+
Protocol: (§1) For the oligonucleotide-directed RNAseH cleavage assay (Gong et al., 2001), 6 μl protein extract (typical protein concentration 2.8 mg/ml) was mixed with 0.5 μg internally ^32P-labeled DRF+ RNA (nucleotides 2401-2605 of the duck HBV genome plus 60 nucleotides of flanking sequences from pBluescript) and 3 μg oligonucleotide D2507- or its corresponding negative control D2526+ on ice in 20 μl under the conditions in Table 1. Some reactions in FIG. 5 employed oligonucleotide D2543M-Sal or its D2453+ negative control as indicated. The reactions were incubated at 42° C. for 90 min. and terminated by addition of Laemmli protein loading buffer and boiling. The samples were resolved by 12% SDS-PAGE, the gels were stained with Coomassie blue to monitor protein loading, and labeled RNA was detected by autoradiography. Candidate inhibitors were dissolved in DMSO and added at the indicated concentrations during assembly of the reactions. Control reactions lacking the compounds contained DMSO as a vehicle control. The RNAseH autoradiograms were scanned and quantified with ImageJ.
(§2) Oligonucleotide-directed RNAseH cleavage assays (Gong et al., 2001) were performed as described (Tavis et al., 2013). Briefly, HBV RNAseH extracts were mixed with a 264 nt-long internally ^32P-labeled RNA plus an excess of a complementary DNA oligonucleotide or its inverse-complement as a negative control in a final concentration of 65 mM Tris pH 8.0, 190 mM NaCl, 5 mM MgCl2, 5 mM dTT, 0.05% NP40, and 6% glycerol. βTJ was dissolved in DMSO and added at the indicated concentrations; the final concentration of DMSO in all reactions was 1%. The reactions were incubated at 42° C. for 90 min. and terminated by addition of Laemmli protein electrophoresis buffer. The samples were resolved by SDS-PAGE, labeled RNA was detected by autoradiography, the autoradiograms were scanned, and the RNA cleavage products were quantified with ImageJ (National Institutes of Health). IC50 values were calculated by non-linear regression using GraphPad Prism (GraphPad Software, Inc.).

[2] = target: T2, chimeric HBV:HIV RNAseH HHC1 (Hepatitis B virus genotype D subtype ayw, UniProt P03156, DELINS787-795[…]/INS679M); assay: Oligonucleotide-directed RNAseH cleavage assay, chimeric HHC1; type: biochemical; settings: 10 μM; ± standard deviation, 3 to 7 replicates
T2 construct: HHC1 is an HRHPL derivative; made in house; host or cells: E. coli BL21 codon+
Excerpt: pCMV-HBV-LE-(CMV-HBV) is an HBV over-length genomic expression vector containing 1.2 copies of the HBV(adw2) genome (Genbank X02763.1) downstream of the CMV promoter cloned into pBS (Promega). Surface protein expression from this vector is ablated by mutating the preS and S open reading frames. pCMV-HBV(genotype D) is an analogous HBV genomic expression construct and was a gift from Dr. Shuping Tong (Brown University). For bacterial expression, codon-optimized cDNA sequences for HRHPL (genotypes A, B, C, D, and H), and noncodon-optimized sequences for HHC1 and HHC2 were cloned by gene synthesis (Genscript) between the NcoI and EcoRI sites into pTrcHis2B (Invitrogen) with a C-terminal hexahistidine tag. HRHPL contains HBV genotype D (Genbank V01460) polymerase residues 684-845. HHC1 is an HRHPL derivative in which HBV polymerase residues 800-808 were replaced with HIV residues corresponding to the RNAseH helix D ([…]; SEQ ID NO:6). HHC2 is an HRHPL derivative in which HBV polymerase residues 800-845 were replaced with HIV residues corresponding to the RNAseH helix D to the C-terminus ([…]; SEQ ID NO:7). The human RNAseH1 gene (NP_002927.2) was cloned with an N-terminal hexahistidine-tag between the BamHI and XhoI sites of pRsetB (Invitrogen) by gene synthesis.
as §1, with “ImageJ. The oligonucleotides were: D2526+([…]; SEQ ID NO:8), D2507-([…]; SEQ ID NO:9), D2453+([…]; SEQ ID NO:10), and D2543M-Sal ([…]; SEQ ID NO:11).” for “ImageJ.”

HBV genotype H RNAseH = assay: Oligonucleotide-directed RNAseH cleavage assay, HBV genotype H; type: biochemical, Hepatitis B virus; settings: 10 μM; for Residual activity at 10 uM, Genotype H: ± standard deviation, 3 to 7 replicates
Protocol: as §1, with “ImageJ. The oligonucleotides were: D2526+([…]; SEQ ID NO:8), D2507-([…]; SEQ ID NO:9), D2453+([…]; SEQ ID NO:10), and D2543M-Sal ([…]; SEQ ID NO:11).” for “ImageJ.”
as §2

human RNAseH1 = target: T3, human RNAseH1 (Homo sapiens, UniProt O60930); assay: Oligonucleotide-directed RNAseH assay, recombinant human RNAseH1; type: biochemical; settings: for Activity vs. human RNAseH1: class by concentration giving inhibition (10, 20, 60 μM)
T3 construct: hexahistidine (N); made in house; host or cells: E. coli BL21 codon+
T3 sequence (O60930 1-286): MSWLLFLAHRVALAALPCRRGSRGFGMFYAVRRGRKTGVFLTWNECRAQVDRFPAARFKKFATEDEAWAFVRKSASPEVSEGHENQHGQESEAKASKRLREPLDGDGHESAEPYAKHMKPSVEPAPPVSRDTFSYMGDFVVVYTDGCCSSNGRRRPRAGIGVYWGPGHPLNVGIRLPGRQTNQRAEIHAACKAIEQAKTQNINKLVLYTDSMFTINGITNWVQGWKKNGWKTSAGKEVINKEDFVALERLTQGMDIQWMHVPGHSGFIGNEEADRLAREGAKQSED
Protocol: as §1, with “ImageJ. The oligonucleotides were: D2526+([…]; SEQ ID NO:8), D2507-([…]; SEQ ID NO:9), D2453+([…]; SEQ ID NO:10), and D2543M-Sal ([…]; SEQ ID NO:11).” for “ImageJ.”
Therefore, the inventors cloned the human RNAseH1 with an N-terminal hexahistidine tag, expressed it in E. coli, and purified the protein by nickel affinity chromatography. […] This enzyme was active in the oligonucleotide-directed and fluorescent RNAseH assays (FIG. 10B and data not shown). To determine how inhibition of human RNAseH1 compared to inhibition of the HBV RNAseH, the inventor titrated the RNAaseH1 enzyme to yield similar levels of activity as the HBV enzyme, and then the inventor directly compared the ability of compounds #8-12 to inhibit human RNAseH1 and HRHPL at 10 μM. […] Therefore, it is possible to inhibit the HBV RNAseH without inhibiting human RNAseH1.
as §2

T2 sequence (P03156 680-786, added parts left off, stated change not applied): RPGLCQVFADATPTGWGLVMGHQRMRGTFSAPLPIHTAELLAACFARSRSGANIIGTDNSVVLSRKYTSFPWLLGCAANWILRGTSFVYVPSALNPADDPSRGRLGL
T1 sequence (P03156 680-832, added parts left off, stated change not applied): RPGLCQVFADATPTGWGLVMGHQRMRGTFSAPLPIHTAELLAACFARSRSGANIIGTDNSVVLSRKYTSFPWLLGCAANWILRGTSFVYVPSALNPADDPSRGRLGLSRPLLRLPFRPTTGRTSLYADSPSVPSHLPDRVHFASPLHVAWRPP

Compound | Activity vs. HBV Genomic Replication (HBV) | Residual activity at 10 uM, Genotype D [1] [Percent DMSO control] | Activity vs. HBV Biochemical vs. gtD [1] | Residual activity at 10 uM, HHC1 [2] [Percent DMSO control] | Residual activity at 10 uM, Genotype H (HBV genotype H RNAseH) [Percent DMSO control] | Activity vs. human RNAseH1 (human RNAseH1) | Inhibition of human RNAseH1 (human RNAseH1; 10 μM, compared directly with HRHPL) | Inhibition of HBV genotype H RNAseH (HBV genotype H RNAseH; below threshold of irrelevant controls)
O=C(O)c1ccc(-c2cccc(C=NNC(=O)c3cc(O)c(O)c(O)c3)c2)cc1 [Compound 15] | − (− no activity at 60 μM) | 47 ± 4 | − (− no inhibition at 60 μM) | 68 ± 6 | 37 ± 23 |  |  | 
COC(=O)Oc1nsnc1N1CCOCC1 [Compound 4] | − (− no activity at 60 μM) | 35 ± 6 | + (+ inhibition at 60 μM) | 37 ± 5 | 68 ± 18 |  |  | 
O=c1cc2oc3cc(O)c(O)cc3c(-c3ccccc3)c-2cc1O [Compound 31] | − (− no activity at 60 μM) | 26 ± 15 | +++ (+++ inhibition at 10 μM) | 42 ± 12 | 50 ± 10 | +++ (+++ inhibition at 10 μM) |  | 
O=c1c(O)c(-c2cc(O)c(O)c(O)c2)oc2cc(O)cc(O)c12 [Compound 9] | − (− no activity at 60 μM) | 33 ± 10 | ++ (++ inhibition at 20 μM) | 58 ± 15 | 66 ± 23 | ++ (++ inhibition at 20 μM) | inhibited it weakly | 
COc1ccc2ccccc2c1C=NNC(=O)c1ccc(O)c(O)c1 [Compound 13] | − (− no activity at 60 μM) | 52 ± 12 | − (− no inhibition at 60 μM) | 65 ± 14 | 42 ± 26 |  |  | 
CN(C)c1ccc(-c2c3cc(O)c(=O)cc-3oc3cc(O)c(O)cc23)cc1 [Compound 35] | − (− no activity at 60 μM) | 27 ± 14 | +++ (+++ inhibition at 10 μM) | 39 ± 9 | 38 ± 20 | +++ (+++ inhibition at 10 μM) |  | 
Cc1sc2nc(-c3ccc([N+](=O)[O-])cc3)[nH]c(=O)c2c1C [Compound 38] | − (− no activity at 60 μM) | 24 ± 1 | +++ (+++ inhibition at 10 μM) | 32 ± 4 | 38 ± 25 |  |  | 
O=c1cc2oc3cc(O)c(O)cc3c(-c3ccccn3)c-2cc1O [Compound 39] |  | 21 ± 2 |  | 60 ± 24 | 26 ± 0 |  |  | inhibited
CC(Cc1ccc(O)c(O)c1)C(C)Cc1ccc(O)c(O)c1 (centres unmarked) [Compound 2] | − (− no activity at 60 μM) | 54 ± 18 | − (− no inhibition at 60 μM) | 35 ± 6 | 67 ± 20 |  |  | 
O=c1c(O)c(-c2ccc(O)c(O)c2)oc2cc(O)c(O)c(O)c12 [Compound 7] | − (− no activity at 60 μM) | 45 ± 19 | − (− no inhibition at 60 μM) | 56 ± 13 | 68 ± 24 | +++ (+++ inhibition at 10 μM) |  | 
NC(=O)c1c(N)sc2c1CCCCC2 [Compound 3] | − (− no activity at 60 μM) | 43 ± 14 | − (− no inhibition at 60 μM) | 60 ± 19 | 68 ± 14 |  |  | 
